According to publication PMC7949142, “NAD(H) phosphates mediate tetramer assembly of human C-terminal binding protein (CtBP)” (The Journal of Biological Chemistry, 2021):

Legend:
Format in all cases: binding
[1] = molecular target: T1, CtBP2 (Homo sapiens, UniProt P56545); experiment: SEC-MALS tetramer assembly, concentration dependence
T1 construct: 31–445

[2] = molecular target: T2, CtBP1 (Homo sapiens, UniProt Q13363); experiment: as above; parameters: 28–440
[3] = molecular target: T2, CtBP1; experiment: SEC-MALS tetramer assembly; parameters: 28–375 (crystal); 28–440 (SEC-MALS)

| EC50 [1] | EC50 [2] | EC50 [3] | SMILES |
| --- | --- | --- | --- |
| ~43 µM | ~52 µM |  | Nc1ncnc2c1ncn2[C@@H]1O[C@H](COP(=O)(O)OP(=O)(O)O)[C@@H](O)[C@H]1O [ADP] |
|  |  | ~66 µM | Nc1ncnc2c1ncn2[C@@H]1O[C@H](COP(=O)(O)O)[C@@H](O)[C@H]1O [AMP] |
